Data on six compounds can be found in patent US20140148422A1, “TREATMENT OF GLUCOSE INTOLERANCE” (AtheroNova Operations, Inc., priority 2009, published 2014).

The subject of series [1] is Fat Metabolism in Mice. The series is described as follows: Determination of ketonuria in mice (urine ketone bodies, Ketostix strips). In kind it is in vivo. More on the design: key to Ketone level: —: No detectable levels of Ketone in the urine; Trace amount of Ketone (6 mg/dL) in the urine; Small amount of Ketone (15 mg/dL) in the urine. The following applies: week 23; for Ketone level: urine of individual mice; for Average Ketone levels: urine. As for the experimental part: In a preliminary in vivo experiment, four groups of mice (each group including three or four mice of same genetic background) were tested for levels of ketone bodies in their urine after consumption of the high fat and/or high cholesterol rodent chow diet supplemented with or without at least on biocompatible emulsifier. In this study, all mice in all groups (all being eight weeks old when this study commenced) were fed with high fat/high cholesterol chow diet (Catalog No. 12079B from Research Diets) for eight weeks. Starting at week 9, the diet of all mice was switched to low fat chow (AIN-76A Rodent Diet from Research Diets). For 15 weeks thereafter, the control mice of group A were fed with pure low fat chow while the mice in treated groups, B, C and D, were fed with low fat chow supplemented with at least one biocompatible emulsifier as follow: Group B mice were fed with low fat chow supplemented with 0.5% Hyodeoxycholic acid (HDCA) and 1.25% D-Limonene (DLM). Group C mice were fed with low fat chow supplemented with 5% DLM. Group D mice were fed with low fat chow supplemented with 1.25% HDCA.
At week 23 of the experiment, urine samples from each mice were taken and analyzed for ketone body levels using Ketostix® stips.

For series [2] the following is noted: taken orally, cited from earlier work.
Series [3] is described as follows: Escape of oral HDCA from the entero-hepatic circulation into the systemic circulation. It counts as in vivo, human. Particulars: 750 mg/day dose, average adult person weighing 70 kg, assuming about 70% enters systemic circulation. The source says:
(§1) It is know in the art that when hyodeoxycholic acid (a hydrophilic bile acid) is taken orally, it is absorbed through the gut and reaches the liver, but then a large fraction of it, up to 70%, escapes the entero-hepatic circulation, and enters the systemic circulation. See Salvioli et al., European Journal of Clinical Investigation, Vol. 18(1), pp. 22-28 (February 1988). Therefore, the induction of ketonuria is an indication that HDCA upon becoming bioavailable the systemic circulation is able to induce dissolution of the body fat.
(§2) Considering that about 70% of HDCA escapes the entero-hepatic pathway and enters into the systemic blood circulation, the 750 mg/day dose of HDCA averages to concentration of about 270 μM in the blood of an average adult person weighing 70 kg, as compared to normal levels of bile salts in the blood which are less than 10 μM. Some embodiments described herein are effective to mimic the high levels of bile salts observed as safe in Example 2, and in so doing are effective to result in the treatment of obesity.

Series [4] concerns C57BL/6 LDL r-KO knockout mice. Particulars: HDCA fed, relative to mice not provided HDCA; cited from earlier work.
For series [5], the system named is Fat Metabolism In Human. The experiment in a line: Ketonuria in an individual taking oral HDCA (weekly Ketostix testing). It counts as in vivo. Particulars: 250 mg orally three times a day (750 mg/day), 10 weeks, no caloric restriction, one individual.
Excerpt: as §1, §2
An in vivo experiment was performed to assess the effectiveness of HDCA in causing fat catabolism and treating obesity in human. In this experiment, an overweight individual otherwise healthy took 250 mg of HDCA three times a day (750 mg/day) for a period of 10 weeks without caloric restriction.

For series [6] the following is noted: wild-type mice provided dietary HDCA; cited from earlier work.
For series [7] the following is noted: drug compared with placebo; cited from earlier work.
Where [8] appears, read: low fat chow + 5% DLM (Group C).
Setting [9] is: low fat chow + 1.25% HDCA (Group D).

Values joined by “and” are separate entries in the source; they are usually repeats but may differ in a detail not shown here. Equal entries are not always repeated. “Also recorded” adds a separate entry of the source. Where two headings read alike, the source gives them in different places.

In the case of `C=C(C)[C@H]1CC=C(C)CC1` [DLM, D-Limonene], in series [1] (setting [8]), the Ketone level result is “— and T (Trace amount of Ketone (6 mg/dL) in the urine) (2×) and S (Small amount of Ketone (15 mg/dL) in the urine)”; the “Average Ketone levels” value worked out at 42.
Turning to `C[C@H](CCC(=O)O)[C@H]1CC[C@H]2[C@@H]3C[C@H](O)[C@@H]4C[C@H](O)CC[C@]4(C)[C@H]3CC[C@]12C` [HDCA, hyodeoxycholic acid], in series [2], the “Fraction escaping the entero-hepatic circulation and entering the systemic circulation” value is “about 70%”. Moreover, in series [2] (listed as hyodeoxycholic acid), the “Fraction escaping the entero-hepatic circulation and entering the systemic circulation” value is listed as “up to 70%”. Further, in series [1] (setting [9]), the Ketone level entry is “— and T (Trace amount of Ketone (6 mg/dL) in the urine) and S (Small amount of Ketone (15 mg/dL) in the urine)”; the “Average Ketone levels” value is on record as 100. In series [3], the “Average concentration in the blood” value was “about 270 μM”. Besides, the “Rate of formation of atherosclerotic plaque” value in series [4] was “reduced rate of formation of atherosclerotic plaque”. Further, the “Ketonuria / ketotic state” value in series [5] is given as “mild ketonuria; also recorded: mild ketotic state”. In series [6], the Plasma levels entry is “up to 50 μM”.
As to `CC(C)CC(N(C)C)C1(c2ccc(Cl)cc2)CCC1` (centres unmarked) [sibutramine], the Weight loss entry in series [7] is “about 5 % of body weight”.
Consider `CC(C)(N)Cc1ccccc1` [phentermine], for which the Weight loss entry in series [7] is given as “about 5 % of body weight”.
For the compound `CCN[C@@H](C)Cc1cccc(C(F)(F)F)c1` [dexfenfluramine], the Weight loss entry in series [7] is recorded as “about 5 % of body weight”.
As to `CCCCCCCCCCC[C@@H](C[C@@H]1OC(=O)[C@H]1CCCCCC)OC(=O)[C@H](CC(C)C)NC=O` [orlistat], the Weight loss result in series [7] was “about 5 % of body weight”.
